# From ChEMBL document CHEMBL3132839, “Discovery of BET bromodomain inhibitors and their role in target validation” (Medchemcomm, 2014)
# Molecular target: Bromodomain-containing protein 4 (Homo sapiens, UniProt O60885)
# Test: Inhibition of BRD4(1) (unknown origin) by Alpha screen binding assay
row,SMILES,IC50 [mM]
1,CNC(=O)[C@H](CCCCNC(C)=O)NC,7
2,C[S+](C)[O-] [DIMETHYL SULFOXIDE],280
